Results as given in US12201612B2, “Use of mavoglurant in the reduction of alcohol use or in preventing relapse into alcohol use” (NOVARTIS AG, priority 2017, dated 2025).
Entries after “also recorded” stand apart in the source; their conditions may differ.

Experiments:
rats = conditions: cited from earlier work
NMDA receptors = conditions: cited from earlier work
[1] = target: norepinephrine transporter (Homo sapiens, UniProt P23975); conditions: cited from earlier work
monoamine oxidase = conditions: cited from earlier work
mice [2] = conditions: cited from earlier work
mice [3] = conditions: cited from earlier work; remark: listed apart in the source
cytochrome P450 1A2 = target: T1, cytochrome P450 1A2 (Homo sapiens, UniProt P05177); conditions: cited from earlier work
T1 sequence (P05177 1-516): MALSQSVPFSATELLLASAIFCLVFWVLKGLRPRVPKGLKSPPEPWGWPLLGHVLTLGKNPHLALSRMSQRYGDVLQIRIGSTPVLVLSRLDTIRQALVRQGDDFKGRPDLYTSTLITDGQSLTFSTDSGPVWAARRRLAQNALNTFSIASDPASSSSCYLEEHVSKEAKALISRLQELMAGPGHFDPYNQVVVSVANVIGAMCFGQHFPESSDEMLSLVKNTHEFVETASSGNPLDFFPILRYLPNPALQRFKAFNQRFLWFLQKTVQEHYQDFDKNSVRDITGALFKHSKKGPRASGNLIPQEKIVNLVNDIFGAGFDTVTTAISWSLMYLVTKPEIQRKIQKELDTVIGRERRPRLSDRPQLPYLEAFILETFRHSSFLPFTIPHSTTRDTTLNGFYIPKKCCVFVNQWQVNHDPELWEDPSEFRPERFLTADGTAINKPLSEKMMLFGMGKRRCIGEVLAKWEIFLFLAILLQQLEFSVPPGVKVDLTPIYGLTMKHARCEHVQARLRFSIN

Sprague-Dawley rats [4] = assay: Cue-induced reinstatement of the cocaine self-administration response (Phase II); type: in vivo, rat; conditions: 10 mg/kg PO, 1 hour prior to test; after 9-day extinction
Procedure: The methods for food training, catheter surgery, flushing and infusion confirmation were the same as those in Phase I.
Cocaine self-administration training in this stage was conducted in a separate cohort of rats (N=32). The methods of training were the same as those in Phase I, but the cues (light flash plus tone) appeared concurrently during cocaine infusion, and the cue light stayed on during the 20 second timeout period. As in Phase I, rats underwent 15 days of acquisition training.
After a stable rate of cocaine self-administration was achieved, the rats underwent a 9-day extinction procedure, which was similar to acquisition training except that pressing the active lever led to saline infusion instead of cocaine. During extinction sessions no cues were presented after an active lever-press. Rats were all reached the criterion for extinction (number of infusions ≤5, i.e. number of active lever responses <30 in the 1-hour session) in day 9 (last day) of extinction training.
During the reinstatement session, which occurred one day after the last extinction session, rats were presented the cues (flash+tone) at the beginning of the session and their lever-press responses recorded. There was no cocaine infusion during this reinstatement session, subject only received saline on a FR5 schedule. […]

Sprague-Dawley rats [5] = assay: Acute effects on cocaine intravenous self-administration (Phase I, FR5); type: in vivo, rat; conditions: sub-cohort I-b
Procedure: Adult male Sprague-Dawley rats (300-325 g at arrival) from Harlan Laboratory (Indiana, USA) were used. Upon arrival, the rats were assigned a unique identification numbers (tail marks). Animals were single housed in suspended polycarbonate rat cages with filter tops, and were acclimated for up to 7 days. All rats were examined, handled, and weighed prior to initiation of the study to assure adequate health and suitability. During the course of the study, 12 h/12 h light/dark cycles were maintained. The room temperature was 21-23° C. with a relative humidity maintained at 30-70%. Water was provided ad libitum for the duration of the study.
Cocaine Hydrochloride (Sigma-Aldrich, USA) (1.05 mg/ml which is equivalent to 0.3 mg/kg/infusion under 350 g body weight and 0.1 ml/infusion rate) was dissolved in saline (0.9% NaCl). The formulation was a clear solution.
Mavoglurant (free form) was formulated in 0.5% methylcellulose (MC) at 1, 3 and 10 mg/kg and administered orally at a dose volume of 1 ml/kg 60 minutes prior to test.
Intravenous drug self-administration took place in sound attenuated operant chambers equipped with an exhaust fan (Med Associates, VT). Each chamber contained two levers situated on one wall of the chamber. Only one of the two levers was active (located on the left side). Pressing the active lever caused delivery of reinforcer (food or cocaine). […]

Chain of norepinephrine transporter (P23975 whole entry, species assumed): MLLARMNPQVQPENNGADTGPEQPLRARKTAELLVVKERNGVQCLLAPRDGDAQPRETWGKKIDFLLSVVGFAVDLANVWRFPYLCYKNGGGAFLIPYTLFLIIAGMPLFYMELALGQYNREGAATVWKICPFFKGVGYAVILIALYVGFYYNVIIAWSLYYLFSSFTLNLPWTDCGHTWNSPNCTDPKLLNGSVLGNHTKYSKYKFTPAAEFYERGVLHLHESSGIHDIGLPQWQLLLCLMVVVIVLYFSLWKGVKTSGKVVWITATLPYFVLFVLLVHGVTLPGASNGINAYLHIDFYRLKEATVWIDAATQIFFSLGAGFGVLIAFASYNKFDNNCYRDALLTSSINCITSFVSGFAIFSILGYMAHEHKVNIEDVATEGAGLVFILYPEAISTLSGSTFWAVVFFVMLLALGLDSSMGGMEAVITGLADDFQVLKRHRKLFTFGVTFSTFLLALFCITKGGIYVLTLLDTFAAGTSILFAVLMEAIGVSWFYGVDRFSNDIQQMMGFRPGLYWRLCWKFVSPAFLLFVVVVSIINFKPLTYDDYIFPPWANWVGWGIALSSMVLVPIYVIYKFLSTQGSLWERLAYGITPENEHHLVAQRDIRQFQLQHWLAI

Structure (SMILES)	cocaine self-administration (rats)	off-target effects on NMDA receptors (NMDA receptors)	off-target effects on the norepinephrine transporter [1]	off-target effects on monoamine oxidase (monoamine oxidase)	ethanol self-administration (mice [2])	cocaine self-administration (mice [3])	inhibition of cytochrome P450 1A2 (cytochrome P450 1A2)	ethanol consumption (mice [2])	cue-induced reinstatement of the self-administration response (Sprague-Dawley rats [4])	responding on the active lever (cocaine self-administration) (Sprague-Dawley rats [5]; 3 mg/kg PO, 60 minutes prior to test, post hoc p<0.10)	responding on the active lever (cocaine self-administration) (Sprague-Dawley rats [5]; 10 mg/kg PO, 1 hour prior to test, post hoc p<0.001)
Cc1cccc(C#Cc2ccccc2)n1 [MPEP, 2-methyl-6-(2-phenylethynyl)pyridine]	decreased cocaine self-administration	off-target effects	off-target effects	off-target effects	decreased ethanol self-administration	decreased cocaine self-administration					
Cc1nc(C#Cc2cccnc2)cs1 [MTEP, 3-[2-(2-methylthiazol-4-yl)ethynyl]pyridine]	decreased cocaine self-administration				decreased ethanol self-administration		potent inhibition	decreased ethanol consumption			
COC(=O)N1CC[C@@H]2[C@H]1CCC[C@@]2(O)C#Cc1cccc(C)c1 [mavoglurant, (−)-(3aR,4S,7aR)-4-Hydroxy-4-m-tolylethynyl-octahydro-indole-1-carboxylic acid methyl ester]									cue-induced reinstatement was suppressed; also recorded: completely prevented cue-induced reinstatement	tended to reduce responding on the active lever	significantly reduced responding; also recorded: significantly reduced cocaine self-administration
